Measured values reported in the supplement of paper PMC10307832.

Tests used:
Assay in all cases: relative viability (nuclei count vs DMSO), 5 days (fraction); higher = more cells survive
[1] = compound: CC1=CC=C(C=C1)C(=O)CN2C3=C(CCCC3)SC2=N [Pifithrin_alpha] + Nc1ncn([C@H]2C[C@H](O)[C@@H](CO)O2)c(=O)n1 [Decitabine] (partner 2 µM)
How it was run: (§1)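 Values are medians from duplicate plates. Each reflects relative viability, defined as the nuclei count of treated wells over that of vehicle wells. Lung cancer cell lines in 1536-well plates were pin-tool dosed one day after seeding with one drug alone or with a fixed anchor-drug dose plus five library-drug doses (not always all listed) in √10 steps, then fixed, stained and imaged at 4× after 5 days.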

[2] = compound: CC1=CC=C(C=C1)C(=O)CN2C3=C(CCCC3)SC2=N [Pifithrin_alpha] + COc1cccc2cc(-c3nc([C@H]4CC[C@H](C(=O)O)CC4)n4ncnc(N)c34)[nH]c12 [OSI-027] (partner 0.5 µM)
How it was run: as §1

Axitinib + Decitabine = compound: CNC(=O)c1ccccc1Sc1ccc2c(/C=C/c3ccccn3)n[nH]c2c1 [Axitinib] + Nc1ncn([C@H]2C[C@H](O)[C@@H](CO)O2)c(=O)n1 [Decitabine] (partner 2 µM)
How it was run: as §1

Bemcentinib + Foretinib = compound: Nc1nc(Nc2ccc3c(c2)CC[C@@H](N2CCCC2)CC3)nn1-c1cc2c(nn1)-c1ccccc1CCC2 [Bemcentinib] + COc1cc2c(Oc3ccc(NC(=O)C4(C(=O)Nc5ccc(F)cc5)CC4)cc3F)ccnc2cc1OCCCN1CCOCC1 [Foretinib] (partner 0.25 µM)
How it was run: as §1

Row | Cell Line | relative viability ([1]; first compound 1 µM) | relative viability ([1]; first compound 3.162 µM) | relative viability ([1]; first compound 10 µM) | relative viability ([1]; first compound 100 µM) | relative viability ([2]; first compound 1 µM) | relative viability ([2]; first compound 3.162 µM) | relative viability ([2]; first compound 10 µM) | relative viability ([2]; first compound 100 µM) | relative viability (Axitinib + Decitabine; first compound 0.005 µM) | relative viability (Axitinib + Decitabine; first compound 0.01581 µM) | relative viability (Axitinib + Decitabine; first compound 0.05 µM) | relative viability (Axitinib + Decitabine; first compound 0.1581 µM) | relative viability (Axitinib + Decitabine; first compound 0.5 µM) | relative viability (Bemcentinib + Foretinib; first compound 0.04 µM) | relative viability (Bemcentinib + Foretinib; first compound 0.1265 µM) | relative viability (Bemcentinib + Foretinib; first compound 0.4 µM) | relative viability (Bemcentinib + Foretinib; first compound 1.265 µM) | relative viability (Bemcentinib + Foretinib; first compound 4 µM) | relative viability ([1]; first compound 31.62 µM) | relative viability ([2]; first compound 31.62 µM)
1 | HCC-366 | 0.308 | 0.326 | 0.403 | 0.297 | 0.787 | 0.605 | 0.538 | 0.48 | 0.361 | 0.356 | 0.393 | 0.323 | 0.423 | 0.888 | 0.952 | 0.946 | 0.914 | 0.941 |  | 
2 | HCC-827 | 0.136 | 0.357 | 0.31 | 0.345 | 0.807 | 0.912 | 0.823 | 0.774 | 0.321 | 0.216 | 0.358 | 0.32 | 0.333 | 1.13 | 1.05 | 1.08 | 1.09 | 1.08 | 0.334 | 0.713
3 | HOP-62 | 0.233 | 0.167 | 0.232 | 0.263 | 0.836 | 0.811 | 0.955 | 0.921 | 0.212 | 0.247 | 0.202 | 0.19 | 0.276 | 1.22 | 1.14 | 1.01 | 1.06 | 1.21 | 0.218 | 0.635
4 | IA-LM |  |  |  |  |  |  |  |  |  |  |  |  |  | 1.08 | 1.25 | 0.985 | 1.08 | 1.09 |  | 
5 | LC-2-ad | 0.786 | 0.73 | 0.811 | 0.675 |  | 0.84 | 0.797 | 0.675 | 0.829 | 0.776 | 0.855 | 0.804 | 0.779 | 0.881 | 0.964 | 1.01 | 0.927 | 0.969 | 0.683 | 
6 | LCLC-97TM1 |  | 0.272 | 0.235 | 0.121 | 0.706 | 0.689 | 0.631 | 0.6 | 0.193 | 0.275 | 0.266 | 0.247 | 0.234 | 0.941 | 0.97 | 0.929 | 0.964 | 1.02 |  | 0.252
7 | LCLC-103H | 0.659 | 0.7 | 0.708 | 0.65 | 0.521 | 0.504 | 0.437 | 0.531 | 0.738 | 0.719 | 0.738 | 0.801 | 0.797 | 0.752 | 0.787 | 0.778 | 0.918 | 0.825 | 0.636 | 0.411
8 | LK-2 | 0.202 | 0.266 | 0.309 | 0.316 | 0.192 | 0.213 | 0.185 | 0.169 | 0.262 | 0.245 | 0.298 | 0.347 | 0.222 | 1.51 |  | 1.29 | 1.35 | 1.49 | 0.224 | 0.17
9 | LOU-NH91 | 0.758 | 0.79 | 0.808 | 0.742 | 0.592 | 0.692 | 0.703 | 0.595 | 0.852 | 0.645 | 0.813 | 0.749 | 0.851 | 0.891 | 0.895 | 0.933 | 1.02 | 0.988 | 0.705 | 0.655
10 | LU99A | 0.834 | 0.919 | 1.04 | 0.863 | 0.266 | 0.27 | 0.273 | 0.281 | 0.719 | 0.987 | 0.761 | 0.905 | 0.857 | 0.751 | 0.763 | 0.778 | 0.816 | 0.837 |  | 0.23
11 | LXF-289 | 0.359 | 0.335 | 0.388 | 0.369 | 0.53 | 0.766 | 0.737 | 0.729 | 0.388 | 0.398 | 0.353 | 0.362 | 0.395 | 0.959 | 1.06 | 0.976 | 0.983 | 0.994 | 0.366 | 0.68
12 | NCI-H23 | 0.317 | 0.316 | 0.317 | 0.337 | 0.627 | 0.535 | 0.446 | 0.535 | 0.327 | 0.311 | 0.346 | 0.299 | 0.325 | 0.916 | 1.2 | 1.15 | 1.09 | 1.08 | 0.283 | 
13 | NCI-H322M | 0.72 | 0.708 | 0.719 | 0.784 | 0.536 | 0.531 | 0.503 | 0.508 | 0.715 | 0.667 | 0.673 | 0.675 | 0.686 | 0.939 | 1.01 | 0.919 | 1.11 | 0.97 | 0.78 | 0.419
14 | NCI-H522 | 0.681 | 0.722 | 0.693 | 0.579 | 0.439 | 0.624 | 0.668 | 0.777 | 0.639 | 0.725 | 0.625 | 0.63 | 0.624 |  |  |  |  |  | 0.673 | 0.761
15 | NCI-H1299 |  |  |  |  |  |  |  |  |  |  |  |  |  | 1.09 | 1.13 | 1.13 | 1.13 | 1.09 |  | 
16 | NCI-H1563 |  |  |  |  | 0.776 | 0.81 | 0.76 | 0.716 |  |  |  |  |  | 0.998 | 0.999 | 0.975 | 0.897 | 0.949 |  | 0.704
17 | NCI-H1623 |  |  |  |  | 0.401 | 0.5 | 0.38 | 0.324 |  |  |  |  |  | 0.857 | 0.742 | 0.853 | 1.01 | 0.934 |  | 0.331
18 | NCI-H1648 | 0.478 | 0.597 | 0.464 | 0.496 | 0.226 | 0.277 | 0.234 | 0.252 | 0.537 | 0.574 | 0.568 | 0.519 | 0.478 |  |  |  |  |  | 0.406 | 0.235
19 | NCI-H1703 |  |  |  |  |  |  |  |  |  |  |  |  |  |  | 0.336 | 0.377 | 0.312 | 0.334 |  | 
20 | NCI-H1792 | 0.457 | 0.48 | 0.624 | 0.423 |  | 0.668 | 0.538 | 0.458 | 0.527 | 0.508 | 0.429 | 0.533 | 0.575 |  |  |  |  |  |  | 0.391
21 | NCI-H2228 |  |  |  |  | 0.589 | 0.574 | 0.526 | 0.283 |  |  |  |  |  | 0.516 | 0.931 | 0.994 | 0.908 | 0.776 |  | 0.392
